Converted amounts (≈) assume the structure as drawn. Like-named read-outs stand apart in the source and are kept apart here.
Assays:
[1] = system: Candida albicans ATCC 10231; assay: MIC and MBC/MFC by broth microdilution; type: cell-based; settings: C. albicans ATCC 10231
Experimental: (§1) Reference strains of bacteria and fungi: Staphylococcus aureus ATCC 29213, Staphylococcus epidermidis ATCC 12228, Enterococcus faecalis ATCC 29212, Pseudomonas aeruginosa ATCC 25619, Proteus vulgaris ATCC 8427, and Candida albicans ATCC 10231 (Manassas, VA, USA) were used to screen the antimicrobial activity of the arene-ruthenium(II) complexes 3a-3d, NH4PF6 and selected antibiotics. The microorganisms were grown for 24 h (bacteria) or 48 h (fungi) in 35-37 °C in tryptic-soy agar (TSA; BTL Sp. z o.o., Łódź, Poland) or Sabouraud's dextrose agar (SDA; BTL Sp. z o.o., Łódź, Poland) according to nutritional requirements. Microbial suspensions at a density of about 5 × 10^5 CFU/mL were prepared in Mueller-Hinton broth (MHB; BTL Sp. z o.o., Łódź, Poland) or RPMI-1640 medium (Sigma, St. Louis, MO, USA) for bacteria and fungi, respectively. […] Louis, MO, USA). Stock solutions of the lyophilized compounds were freshly prepared in 100% DMSO (POCh, Gliwice, Poland) for the complexes, or in water for injection (Sigma, St. Louis, MO, USA) in the case of antibiotics. […] MIC and MBC/MFC were defined as the lowest concentrations of the compounds inhibiting bacterial/fungal growth or able to kill added microbial inoculum, respectively, and were evaluated as described by […] et al.. Experiments were carried out in duplicate.

S. aureus ATCC 29213 [2] = assay: Synergy with oxacillin and vancomycin, partial checkerboard broth microdilution; type: cell-based, Staphylococcus aureus; settings: for FIC (Oxa) / FIC (Van): MIC antibiotic in combination/MIC antibiotic alone; for MIC Oxa in Combination: oxacillin with the complex at ½ MIC (NH4PF6 250 µg/mL); for MIC Van in Combination: vancomycin with the complex at ½ MIC (NH4PF6 250 µg/mL); for MIC: Staphylococcus aureus
[3] = system: S. epidermidis ATCC 12228; assay: as above; type: cell-based, Staphylococcus epidermidis; settings: for FIC (Oxa) / FIC (Van): MIC antibiotic in combination/MIC antibiotic alone; for MIC Oxa in Combination: oxacillin with the complex at ½ MIC (NH4PF6 250 µg/mL); for MIC Van in Combination: vancomycin with the complex at ½ MIC (NH4PF6 250 µg/mL); for MIC: Staphylococcus epidermidis
S. aureus ATCC 29213 [4] = assay: Time-kill test; type: cell-based, Staphylococcus aureus; settings: 1 × MIC
Experimental: (§2) The time-kill experiments were performed as described previously. Briefly, inocula were prepared in TSB medium (TSB; […] BTL Sp. z o.o., Łódź, Poland). All samples were incubated at 35 °C and 80 rpm for varied time intervals (2, 4, 6, 12, 18, 24, 48h). The percentage of dead cells was calculated according to the growth control by determining the number of living cells (CFU/mL) of each tube using the agar plate count method. Samples were immediately serially diluted ten-fold in 0.01 M phosphate buffered saline (PBS, Bimed Lublin S.A., Lublin, Poland) at pH 7.0 and 10 μL aliquots were spot-inoculated in duplicate onto MHA plates. Agar plates were incubated at 37 °C overnight before determining the viable count. Two independent experiments were carried out.

[5] = system: S. epidermidis ATCC 12228; assay: Time-kill test; type: cell-based, Staphylococcus epidermidis; settings: 1 × MIC
Experimental: as §2

[6] = system: S. epidermidis ATCC 12228; assay: Cell lysis (bacteriolysis, OD600); type: cell-based, Staphylococcus epidermidis; settings: 1 × MBC
[7] = system: Staphylococcus aureus ATCC 29213; assay: Fluorescence microscopy, Hoechst 33258 / propidium iodide viability; type: cell-based; settings: S. aureus ATCC 29213; MIC concentration, 24 h
Experimental: (§3) Staphylococcus aureus ATCC 29213 and Staphylococcus epidermidis ATCC 12228 strains were treated with tested compounds 2a–2d and 3a–3d at a concentration 1 × MIC for 24h, while untreated cells were used as a growth control. After incubation, the cells were harvested and a suspension of 1 × 10^5 cells/mL in PBS was prepared. Following this, 1 µl of the fluorescent dyes Hoechst 33258 and propidium iodide (15 µg/mL each) (Sigma, St. Louis, MO, USA) were added. The obtained mixture was incubated in the dark at room temperature for 15–20 min. After incubation, the cell suspensions, placed on glass slides, were analyzed under an Olympus IX 70 fluorescence microscope (Shinjuku, Tokyo, Japan), using a 360–370 nm UV filter. Photos were taken at 10 × 20 magnification.

[8] = system: Staphylococcus epidermidis ATCC 12228; assay: as above; type: cell-based; settings: S. epidermidis ATCC 12228; MIC concentration, 24 h
Experimental: as §3

[9] = system: Enterococcus faecalis ATCC 29212; assay: MIC and MBC/MFC by broth microdilution; type: cell-based; settings: E. faecalis ATCC 29212
Experimental: as §1

[10] = system: Proteus vulgaris ATCC 8427; assay: MIC and MBC/MFC by broth microdilution; type: cell-based; settings: P. vulgaris ATCC 8427
Experimental: as §1

[11] = system: Pseudomonas aeruginosa ATCC 25619; assay: MIC and MBC/MFC by broth microdilution; type: cell-based; settings: P. aeruginosa ATCC 25619
Experimental: as §1

[12] = system: Staphylococcus aureus ATCC 29213; assay: MIC and MBC/MFC by broth microdilution; type: cell-based; settings: S. aureus ATCC 29213
Experimental: as §1

[13] = system: Staphylococcus epidermidis ATCC 12228; assay: MIC and MBC/MFC by broth microdilution; type: cell-based; settings: S. epidermidis ATCC 12228
Experimental: as §1

[14] = system: human foreskin fibroblast HFF-1 (ATCC-SCRC-1041); assay: Cytotoxicity, MTT reduction assay; type: cell-based
Experimental: The cytotoxicity of arene-ruthenium(II) complexes 3a–3d was determined using the MTT (3-(4,5-dimethylthiazol-2-yl)-2,5-diphenyltetrazolium bromide; Sigma, St. Louis, MO, USA) reduction assay and a human foreskin fibroblast HFF-1 culture (ATCC-SCRC-1041) (LGC Standards Sp. z o.o., Poland) at a final concentration range of 3.9–500 µM. The HFF-1 cells were cultured in Dulbecco’s Modified Eagle’s Medium (DMEM; Sigma, St. Louis, MO, USA) with 15% fetal bovine serum (FBS; BioWest, Nuaillé, France) and penicillin/streptomycin (100 × stock solution; BioWest, Nuaillé, France), 1 × 10^6 cell/mL (100 µL/well) in 96-well tissue culture plates (Nunc, Roskilde, Denmark) for 24 h at 37 °C/5% CO2. The cells were then exposed to arene-ruthenium(II) complexes for 24 h at 37 °C. The control (untreated) cells were exposed to culture medium alone or culture medium containing 2% DMSO to exclude the effect of the solvent used to prepare the stock solutions of the tested complexes. Next, fresh culture medium (100 µL/well) and MTT (1.5 mg/mL, 50 µL/well) were added, and cells were incubated for two hours under the above conditions. MTT was […] blue formazan crystals produced by the metabolically active cells. Finally, the MTT solution was removed and replaced with 100 µL/well of 20% sodium dodecyl sulfate (SDS; Sigma, St. Louis, MO, USA) for 24 h (room temperature) to dissolve the blue formazan. Based on the absorbance (λ = 550 nm) of tested and control cells (100% viability), the percentage of cell viability after exposure was calculated. For each sample, the experiment was performed twice.

Compound | MBC/MFC [1] | MIC [1] | FIC (Oxa) (S. aureus ATCC 29213 [2]; S. aureus ATCC 29213) | FIC (Van) (S. aureus ATCC 29213 [2]; S. aureus ATCC 29213) | MIC Oxa in Combination (S. aureus ATCC 29213 [2]; S. aureus ATCC 29213) | MIC Van in Combination (S. aureus ATCC 29213 [2]; S. aureus ATCC 29213) | FIC (Oxa) ([3]; S. epidermidis ATCC 12228) | FIC (Van) ([3]; S. epidermidis ATCC 12228) | MIC Oxa in Combination ([3]; S. epidermidis ATCC 12228) | MIC Van in Combination ([3]; S. epidermidis ATCC 12228) | MBC/MFC [9] | MIC [9] | MBC/MFC [10] | MBC/MFC [11] | MBC/MFC [12] | MBC/MFC [13] | also measured
OC(Cn1cncn1)(Cn1cncn1)c1ccc(F)cc1F [Flu, fluconazole, reference compound] | >16 µg/mL | >16 µg/mL |  |  |  |  |  |  |  |  |  |  |  |  |  |  | MIC ([1]; Candida albicans, ATCC10231, read-out: MIC): > 16 µg/mL
Cc1cc(C)n(C(N)=S)n1.Cc1ccc(C(C)C)cc1.[Cl-].[Cl][Ru+] [Compound 2a] |  |  | 1 | 1 | 0.250 µg/mL | 0.50 µg/mL | 0.06 | 0.03 | 0.015 µg/mL | 0.015 µg/mL |  |  |  |  |  |  | Time-kill: bacteriostatic or bactericidal (S. aureus ATCC 29213 [4]): bacteriostatic; Time-kill: bacteriostatic or bactericidal [5]: bacteriostatic; Cell lysis, change of OD600 [6]: not found to change OD600 values; Change in bacterial viability (Hoechst 33258 / PI fluorescence) [7]: Less changes in cell survival; Change in bacterial viability (Hoechst 33258 / PI fluorescence) [8]: Less changes in cell survival
Cc1ccc(C(C)C)cc1.Cc1ccc(C(C)C)cc1.[Cl][Ru][Cl].[Cl][Ru][Cl] [Dimer, dichloro(p-cymene)ruthenium(II) dimer] |  |  | 1 | 1 | 0.250 µg/mL | 0.50 µg/mL | 1 | 2 | 0.25 µg/mL | 1 µg/mL |  |  |  |  |  |  | Correlation with Oxa and Van (synergy), in words (S. aureus ATCC 29213 [2]; S. aureus ATCC 29213): did not show any synergistic effect; Correlation with Oxa and Van (synergy), in words ([3]; S. epidermidis ATCC 12228): did not show any synergistic effect
F[P-](F)(F)(F)(F)F.[NH4+] [NH4PF6, Ammonium hexafluorophosphate] | >1000 µg/mL | >1000 µg/mL | 1 | 1 | 0.250 µg/mL | 0.50 µg/mL | 1 | 2 | 0.25 µg/mL | 1 µg/mL | >1000 µg/mL | >1000 µg/mL | >1000 µg/mL | >1000 µg/mL | >1000 µg/mL | >1000 µg/mL | MIC [10]: >1000 µg/mL; MIC [11]: >1000 µg/mL; MIC [12]: >1000 µg/mL; MIC [13]: >1000 µg/mL; Correlation with Oxa and Van (synergy), in words (S. aureus ATCC 29213 [2]; S. aureus ATCC 29213): did not show any synergistic effect; Correlation with Oxa and Van (synergy), in words ([3]; S. epidermidis ATCC 12228): did not show any synergistic effect
Cc1onc(-c2ccccc2)c1C(=O)N[C@@H]1C(=O)N2[C@@H]1SC(C)(C)[C@@H]2C(=O)O [Oxa, oxacillin, reference compound] |  |  |  |  |  |  |  |  |  |  |  |  |  |  | 0.5 µg/mL (≈ 1.25 µM) | 0.5 µg/mL (≈ 1.25 µM) | MIC ([12]; Staphylococcus aureus, ATCC29213, read-out: MIC): 0.25 µg/mL (≈ 0.623 µM); MIC ([13]; Staphylococcus epidermidis, ATCC12228, read-out: MIC): 0.25 µg/mL (≈ 0.623 µM); MIC (S. aureus ATCC 29213 [2]; ATCC29213, S. aureus ATCC 29213, oxacillin without complex, read-out: MIC Oxa Alone): 0.25 µg/mL; MIC ([3]; ATCC12228, S. epidermidis ATCC 12228, oxacillin without complex, read-out: MIC Oxa Alone): 0.25 µg/mL
[(η ^6 -p-cymene)Ru(1-[amino(thioxo)methyl]-5-hydroxy-3-methyl-1H-pyrazole)[PF6] [Compound 3d] | >1000 µg/mL | >1000 µg/mL | 1 | 2 | 0.250 µg/mL | 1 µg/mL | 0.25 | 0.06 | 0.06 µg/mL | 0.03 µg/mL | 500 µg/mL | 500 µg/mL | >1000 µg/mL | 1000 µg/mL | 500 µg/mL | 250 µg/mL | MIC [10]: >1000 µg/mL; MIC [11]: 1000 µg/mL; MIC [12]: 125 µg/mL; MIC [13]: 125 µg/mL; Change in bacterial viability (Hoechst 33258 / PI fluorescence) [7]: no significant changes in the viability; Change in bacterial viability (Hoechst 33258 / PI fluorescence) [8]: no significant changes in the viability; IC50 ([14]; HFF-1, MTT, 24 h, tested 3.9–500 μM): 892 µM; HFF-1 viability (lowest) ([14]; range 3.9–500 μM): ≥ 75%
CN[C@H](CC(C)C)C(=O)N[C@H]1C(=O)N[C@@H](CC(N)=O)C(=O)N[C@H]2C(=O)N[C@H]3C(=O)N[C@H](C(=O)N[C@H](C(=O)O)c4cc(O)cc(O)c4-c4cc3ccc4O)[C@H](O)c3ccc(c(Cl)c3)Oc3cc2cc(c3O[C@@H]2O[C@H](CO)[C@@H](O)[C@H](O)[C@H]2O[C@H]2C[C@](C)(N)[C@H](O)[C@H](C)O2)Oc2ccc(cc2Cl)[C@H]1O [Van, vancomycin, reference compound] |  |  |  |  |  |  |  |  |  |  |  |  |  |  |  |  | MIC (S. aureus ATCC 29213 [2]; ATCC29213, read-out: MIC Van Alone): 0.5 µg/mL; MIC ([3]; ATCC12228, read-out: MIC Van Alone): 0.5 µg/mL
CNC(C)C1CCC(N)C(OC2C(N)CC(N)C(OC3OCC(C)(O)C(NC)C3O)C2O)O1 (stereo not drawn) [Gen, gentamicin, reference compound] |  |  |  |  |  |  |  |  |  |  | <2 µg/mL | <2 µg/mL | 1 µg/mL (≈ 2.09 µM) | 16 µg/mL (≈ 33.5 µM) |  |  | MIC ([9]; Enterococcus faecalis, ATCC29212, read-out: MIC): < 2 µg/mL; MIC ([10]; Proteus vulgaris, ATCC8427, read-out: MIC): 1 µg/mL (≈ 2.09 µM); MIC ([11]; Pseudomonas aeruginosa, ATCC25619, read-out: MIC): 8 µg/mL (≈ 16.8 µM)

Source: paper PMC8781304, “Arene-Ruthenium(II) Complexes with Carbothiamidopyrazoles as a Potential Alternative for Antibiotic Resistance in Human” (Molecules, 2022)
